According to PubChem BioAssay (NCI):
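GI50 marks 50% less growth. TGI denotes the concentration required for complete inhibition of growth.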

Columns and labels:
Test in all cases: NCI anticancer screen, dose series, 384-well format
[1] = test system: UACC-62 melanoma
[2] = test system: CAKI-1 renal
[3] = test system: HOP-62 NSCLC
[4] = test system: ACHN renal
[5] = test system: SK-OV-3 ovarian
[6] = test system: DU-145 prostate
[7] = test system: UO-31 renal
[8] = test system: LOX IMVI melanoma
[9] = test system: SF-268 CNS
[10] = test system: U251 glioblastoma
[11] = test system: OVCAR-3 ovarian
[12] = test system: SNB-19 CNS
[13] = test system: HT29 colon
[14] = test system: T-47D breast
[15] = test system: NCI-H322M lung
[16] = test system: SK-MEL-5 melanoma
[17] = test system: HCT-116 colon
[18] = test system: RPMI-8226 leukemia
[19] = test system: MDA-MB-435 melanoma
[20] = test system: HL-60(TB) leukemia
[21] = test system: A498 renal
[22] = test system: HCC-2998 colon
[23] = test system: OVCAR-5 ovarian
[24] = test system: NCI-H460 NSCLC
[25] = test system: K-562 leukemia
[26] = test system: HOP-92 NSCLC
[27] = test system: PC-3 prostate
[28] = test system: IGROV1 ovarian
[29] = test system: SW-620 colon
[30] = test system: MCF7 breast
[31] = test system: MDA-MB-231 breast
[32] = test system: CCRF-CEM leukemia
[33] = test system: SK-MEL-28 melanoma
[34] = test system: MOLT-4 leukemia
[35] = test system: SN12C renal
[36] = test system: M14 melanoma
[37] = test system: OVCAR-8 ovarian
[38] = test system: SR leukemia
[39] = test system: SF-295 CNS
[40] = test system: MALME-3M melanoma
[41] = test system: TK-10 renal
[42] = test system: KM12 colon
[43] = test system: BT-549 breast
[44] = test system: NCI-H226 lung
[45] = test system: SK-MEL-2 melanoma
[46] = test system: RXF 393 renal
[47] = test system: A549 NSCLC
[48] = test system: COLO 205 colon
[49] = test system: SF-539 CNS
[50] = test system: HCT-15 colon
[51] = test system: 786-0 renal
[52] = test system: NCI-H522 lung
[53] = test system: MDA-MB-468 breast
[54] = test system: NCI/ADR-RES ovarian
[55] = test system: OVCAR-4 ovarian
[56] = test system: NCI-H23 lung
[57] = test system: UACC-257 melanoma

C=Cc1c(C)c2cc3nc(cc4[nH]c(cc5nc(cc1[nH]2)C(C)=C5CCC(=O)O)c(CCC(=O)OC)c4C)[C@@]1(C)C3=CC=C(C(=O)OC)[C@H]1C(=O)OC
GI50 [1]: 1.88 µM | TGI [1]: 3.63 µM | GI50 [2]: 2.85 µM | TGI [2]: 7.69 µM | GI50 [3]: 1.7 µM | TGI [3]: 4.16 µM | GI50 [4]: 2.46 µM | TGI [4]: 6.83 µM | GI50 [5]: 1.92 µM | TGI [5]: 4.73 µM | GI50 [6]: 2.22 µM | TGI [6]: 5.49 µM | GI50 [7]: 2.33 µM | TGI [7]: 6.21 µM | GI50 [8]: 2.64 µM | TGI [8]: 4.81 µM | GI50 [9]: 1.94 µM | TGI [9]: 5.63 µM | GI50 [10]: 1.61 µM | TGI [10]: 3.97 µM | GI50 [11]: 1.74 µM | TGI [11]: 3.41 µM | GI50 [12]: 2.76 µM | TGI [12]: 9.04 µM | GI50 [13]: 1.98 µM | TGI [13]: 4.72 µM | GI50 [14]: 0.999 µM | TGI [14]: 6.82 µM | GI50 [15]: 1.88 µM | TGI [15]: 4.54 µM | GI50 [16]: 1.3 µM | TGI [16]: 2.68 µM | GI50 [17]: 1.28 µM | TGI [17]: 2.77 µM | GI50 [18]: 1.5 µM | TGI [18]: 2.84 µM | GI50 [19]: 2.36 µM | TGI [19]: 5.48 µM | GI50 [20]: 1.87 µM | TGI [20]: 3.29 µM | GI50 [21]: 1.78 µM | TGI [21]: 4.06 µM | GI50 [22]: 1.54 µM | TGI [22]: 3.11 µM | GI50 [23]: 2.49 µM | TGI [23]: 5.93 µM | GI50 [24]: 1.69 µM | TGI [24]: 3.26 µM | GI50 [25]: 1.03 µM | TGI [25]: 9.64 µM | GI50 [26]: 1.92 µM | TGI [26]: 4.32 µM | GI50 [27]: 1.93 µM | TGI [27]: 4.24 µM | GI50 [28]: 1.93 µM | TGI [28]: 4.73 µM | GI50 [29]: 3.22 µM | TGI [29]: 9.29 µM | GI50 [30]: 1.94 µM | TGI [30]: 5.76 µM | GI50 [31]: 1.51 µM | TGI [31]: 4.38 µM | GI50 [32]: 1.19 µM | TGI [32]: 2.71 µM | GI50 [33]: 1.98 µM | TGI [33]: 4.25 µM | GI50 [34]: 1.23 µM | TGI [34]: 2.49 µM | GI50 [35]: 2.88 µM | TGI [35]: 9.35 µM | GI50 [36]: 2.28 µM | TGI [36]: 5.23 µM | GI50 [37]: 2.09 µM | TGI [37]: 6.68 µM | GI50 [38]: 0.579 µM | TGI [38]: 1.85 µM | GI50 [39]: 1.28 µM | TGI [39]: 2.94 µM | GI50 [40]: 1.66 µM | TGI [40]: 3.92 µM | GI50 [41]: 2.4 µM | TGI [41]: 6.19 µM | GI50 [42]: 1.76 µM | TGI [42]: 3.66 µM | GI50 [43]: 1.32 µM | TGI [43]: 3.3 µM | GI50 [44]: 1.48 µM | TGI [44]: 3.36 µM | GI50 [45]: 1.64 µM | TGI [45]: 3.33 µM | GI50 [46]: 0.668 µM | TGI [46]: 2.56 µM | GI50 [47]: 1.65 µM | TGI [47]: 4.09 µM | GI50 [48]: 2.45 µM | TGI [48]: 5.95 µM | GI50 [49]: 1.65 µM | TGI [49]: 3.22 µM | GI50 [50]: 1.73 µM | TGI [50]: 3.32 µM | GI50 [51]: 2.26 µM | TGI [51]: 6.55 µM | GI50 [52]: 1.33 µM | TGI [52]: 3.66 µM | GI50 [53]: 0.75 µM | TGI [53]: 2.67 µM | GI50 [54]: 1.91 µM | TGI [54]: 4.63 µM | GI50 [55]: 1.25 µM | TGI [55]: 3.61 µM | GI50 [56]: 0.333 µM | TGI [56]: 1.28 µM | GI50 [57]: 1.64 µM | TGI [57]: 3.87 µM
